Reference: patent US7378391B2, “Cyclosporin alkyne analogues and their pharmaceutical uses” (AMR Technology, Inc., priority 2004, dated 2008)
Converted amounts (≈) assume the structure as drawn.

Assays:
[1] = system: concanavalin A (ConA)-stimulated murine splenocytes; assay: Concanavalin A-stimulated splenocyte assay ([3H]thymidine incorporation); format: cell-based, BALB/c mice; conditions: for IC50: immunosuppressive activity of the novel cyclosporin alkyne analogue compound
Method: Male BALB/c mice, at 5 to 7 weeks of age, were sacrificed by CO2 inhalation. Spleens were removed and dissociated by pushing through a nylon cell strainer. The splenocytes were washed in RPMI 1640/5% fetal calf serum (FCS) and pelleted at 400×g. Red blood cells were then lysed by resuspending the cell pellet in ACK lysis buffer (150 mM NH4Cl, 1 mM KHCO3, 0.1 mM EDTA, 3 mL per spleen) for 10 min at room temperature. After pelleting at 400×g, the cells were washed by resuspending in RPMI 1640/5% FCS and repelleting. The cell pellet was resuspended in RPMI 1640/5% FCS and again passed through a cell strainer to remove cell aggregates. The cells were then counted and adjusted to 2×10^6 cells/ml in RPMI 1640/10% FCS/50 μM 2-mercaptoethanol. Cell viability was assessed by Trypan blue staining. […] The cells were cultured in a 37° C. CO2 incubator for 2 days and then pulsed with 1 μCi of [^3H]thymidine for 6 hours. Cells were harvested onto filtermats with a TomTec 96 well plate harvester and lysed with H2O. The filtermat and scintillation fluid were sealed in a plastic sleeve. [^3H]thymidine incorporation was measured with a Wallac Trilux plate counter. Initial screens were done at a fixed value of 100 ng/ml test compound. IC50s were calculated from 7 point concentration-response curves using GraphPad software.

[2] = literature value, Rich et al.; cited from earlier work

Structure (SMILES) | IC50 [1] | immunosuppressive activity (as determined by IC50) relative to ISATX247 ([1]; FIG. 1, compared to ISATX247) | immunosuppressive activity (as determined by IC50) relative to cyclosporin A ([1]; FIG. 1, compared to cyclosporin A) | potency in immunosuppression compared to cyclosporin A and ISATX247 ([1]; FIG. 1 legend) | relative immunosuppressive activity compared to cyclosporin A [2]
CCC1NC(=O)C(C(O)C(C)CC=CC#CI)N(C)C(=O)C(C(C)C)N(C)C(=O)C(CC(C)C)N(C)C(=O)C(CC(C)C)N(C)C(=O)C(C)NC(=O)C(C)NC(=O)C(CC(C)C)N(C)C(=O)C(C(C)C)NC(=O)C(CC(C)C)N(C)C(=O)CN(C)C1=O (stereo not shown) [Example 13, cyclosporin alkynyl iodide] | 1 ng/mL |  |  |  | 
CCC1NC(=O)C(C(O)C(C)CC=CC#CBr)N(C)C(=O)C(C(C)C)N(C)C(=O)C(CC(C)C)N(C)C(=O)C(CC(C)C)N(C)C(=O)C(C)NC(=O)C(C)NC(=O)C(CC(C)C)N(C)C(=O)C(C(C)C)NC(=O)C(CC(C)C)N(C)C(=O)CN(C)C1=O (stereo not shown) [Example 15, cyclosporin alkynyl bromide] | 8 ng/mL |  |  |  | 
CC[C@@H]1NC(=O)[C@H]([C@H](O)[C@H](C)C/C=C/C#CC2CC2)N(C)C(=O)[C@H](C(C)C)N(C)C(=O)[C@H](CC(C)C)N(C)C(=O)[C@H](CC(C)C)N(C)C(=O)[C@@H](C)NC(=O)[C@H](C)NC(=O)[C@H](CC(C)C)N(C)C(=O)[C@H](C(C)C)NC(=O)[C@H](CC(C)C)N(C)C(=O)CN(C)C1=O [Example 33, cyclosporin cyclopropyl alkyne] | 9 ng/mL (≈ 7.18 nM) | equipotent | up to two times more active | enhanced or similar potency | 
CC#CC[C@@H](C)[C@@H](O)[C@H]1C(=O)N[C@@H](CC)C(=O)N(C)CC(=O)N(C)[C@@H](CC(C)C)C(=O)N[C@@H](C(C)C)C(=O)N(C)[C@@H](CC(C)C)C(=O)N[C@@H](C)C(=O)N[C@H](C)C(=O)N(C)[C@@H](CC(C)C)C(=O)N(C)[C@@H](CC(C)C)C(=O)N(C)[C@@H](C(C)C)C(=O)N1C [known cyclosporin alkyne] |  |  |  |  | 10%
